# Data as given in patent US8053013B2, “Flavour modulating substances” (Quest International Services B.V., priority 2004, dated 2011).
# Legend:
# [1] = Panel evaluation of HIT Duck Flavour samples with and without N Lactoyl glucosamine (Example 8); details: Sample B: 0.006% N Lactoyl glucosamine with 0.6% NaCl, 0.03% MSG, 0.1% HIT Duck Flavour (Quest)
# Procedure: Two samples were prepared as follow and compared:
# Sample A: 0.6% of NaCl, 0.03% of MSG and 0.1% of HIT Duck Flavour (Quest)
# Sample B: 0.6% of NaCl, 0.03% of MSG, 0.1% of HIT Duck Flavour (Quest) and 0.006% N Lactoyl glucosamine as prepared in example 4.
# The samples were evaluated by a panel of experienced flavourists. There was general agreement about the difference in taste between the samples: […]
# [2] = Tasting session by a panel of experienced flavourists: solution in tap water (Example 7); details: 0.1 wt % in tap water
# Procedure: For a tasting session by a panel of experienced flavourists a solution comprising 0.1 wt % of a flavour composition as prepared in example 4 in tap water was prepared.
structure (smiles),measurement,setting,value
"CC(O)C(=O)N[C@H]1C(O)O[C@H](CO)[C@@H](O)[C@@H]1O (some centres unmarked) [Example 4, N-Lactoyl-Glucosamine]","taste described by flavourists, compared with sample A without the substance",[1],"savoury duck flavour, with slightly metallic taste, and more meaty character, authenticity, and naturalness than sample A"
same,taste of the solution described by panellists,[2],"strong metallic, bloody, raw meat like"
